According to US9586994B2, “CD44V6-derived peptides for treating breast cancer” (KARLSRUHER INSTITUT FÜR TECHNOLOGIE, priority 2012, dated 2017):

System: CD44v6
Experiment: Peptide blocking of ErbB ligand- or HGF-induced Erk-kinase phosphorylation in HT29 cells (Western blot)
Type: cell-based, human
Details: peptide 100 ng/ml; for EGF-dependent Erk-phosphorylation: EGF 20 ng/ml
Description: 3×10^5 were seeded per well of a 6-well plate and serum-starved for 24 hours. Afterwards the medium inside of each well was reduced to 1 ml and the respective peptide (v6 (both peptides of SEQ ID No.: 2 and 6 were tested), or ctrl peptide) was added at a concentration of 100 ng/ml. The cells then were incubated together with the peptide at 37° C. for 5 mins. Ligand concentration for all peptide blocking experiments was 20 ng/ml.
The cells were incubated with the growth factors specified in the particular experiment. Except for the peptide blocking and migration assays, ligand concentration was 5 ng/ml at all times. Prior to induction the cells were treated as indicated in the results section.
To assay protein expression via Western blot cells were washed 1× with PBS and afterwards lysed in 2×Laemmli sample buffer (160 mM Tris-HCl pH 6.8, 4% SDS, 16% glycerol, 0.1M DTT, 0.01% bromphenol blue). The sample was sheared through a 26 gauge needle. In succession the lysates were boiled for 5 mins at 99° C. in order to denature the proteins in the sample and then spun down at 10 000 rmp for 1 min Eventually the samples were loaded onto an SDS-PAGE gel.
In order to test whether CD44v6 plays a role in the activation of the ErbB family of receptors, a peptide blocking experiment using the 14mers of SEQ ID No. 6 was performed in HT29 cells. The fact that this cell line expresses all ErbB receptors (Wu et al, 2009, see references) and several CD44 variants including also exon v3 and v6 (Orian-Rousseau et al., 2002, see references) makes it a suitable tool to evaluate the co-receptor function of CD44 proteins for the ErbB family. The first ErbB1-ligand that was evaluated was EGF. […] The cells were serum starved for 24 hours and induced with EGF. Phosphorylation of the Erk-Kinase, a downstream target of the ErbB receptor family, was used as a read-out for ErbB receptor activation. HGF was used as a control to test the blocking efficiency of the CD44v6 peptide since the induction of the Erk kinase through Met is dependent on CD44v6 (Orian-Rousseau et al., 2002, see references).
Besides EGF, five other ligands, namely AR, BC, ER, HB-EGF, and TGFα, can activate the ErbB1 receptor. EGF, AR and TGFα bind to either an ErbB1-homo- or an ErbB1/2-heterodimer. In addition to these dimers, BC, ER and HB-EGF can also bind to an Erb4/4 homo- or an ErbB2/4 heterodimer. It was investigated whether the activation of the ErbB receptors by the indicated ligands is also dependent on CD44v6. HT29 cells were serum-starved for 24 hours and pre-treated with the v6-specific or a control peptide. They were then induced with the indicated ErbB ligands. Erk-kinase phosphorylation was used as a read-out for receptor activation.
For this purpose HT29 cells were serum-starved for 24 hours and pre-treated with the v6-specific or a control peptide. They were then induced with the indicated ErbB ligands. Erk-kinase phosphorylation was used as a read-out for receptor activation. All ligands could activate the Erk-kinase. […] These ligands are independent of CD44v6 for their induction of the ErbB receptors. This is especially striking, since EGF and TGF-α address the same receptor pairs (ErbB1/1 or ErbB1/2).

KEQWFGNRWHEGYR [SEQ ID NO: 6, human CD44v6 14mer peptide]
EGF-dependent Erk-phosphorylation (HT29, serum-starved, 5 min pre-incubation, listed as CD44v6 peptide): could be inhibited
EGF-dependent Erk-phosphorylation (HT29, serum-starved, 5 min pre-incubation, listed as human v6 14mer): inhibited
HGF-dependent Erk-phosphorylation (HT29, serum-starved, 5 min pre-incubation, HGF as control ligand): could be inhibited
AR-induced activation of the ErbB receptors (Erk phosphorylation) (HT29, AR 20 ng/ml): could not be inhibited
BC-induced activation of the ErbB receptors (Erk phosphorylation) (HT29, BC 20 ng/ml): could not be inhibited
ER-dependent Erk-phosphorylation (HT29, ER 20 ng/ml): inhibited
HB-EGF-induced activation of the ErbB receptors (Erk phosphorylation) (HT29, HB-EGF 20 ng/ml): could not be inhibited
TGFα-induced activation of the ErbB receptors (Erk phosphorylation) (HT29, TGFα 20 ng/ml): could not be inhibited
